Test results reported in publication PMC11094793, “Discovery of LLC0424 as a Potent and Selective in Vivo NSD2 PROTAC Degrader” (Journal of Medicinal Chemistry, 2024).
Like-named read-outs stand apart in the source and are kept apart here. Values belong to the compound of their own block, whether it stands above or below them.

What was measured:
[1] = molecular target: T1, NSD2 (Homo sapiens, UniProt O96028); experiment: Validation of mechanism of action: pretreatment rescue of LLC0424-mediated NSD2 degradation; format: cell-based
T1 sequence (O96028 211-350 limits assumed): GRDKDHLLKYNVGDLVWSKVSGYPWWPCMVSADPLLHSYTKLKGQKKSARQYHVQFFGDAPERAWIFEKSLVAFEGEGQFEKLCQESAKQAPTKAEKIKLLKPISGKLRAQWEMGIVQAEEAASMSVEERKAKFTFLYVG

[2] = test system: NSD2; set-up: method as in PMID 36976643; settings: U2OS cells, 24 h treatment; cited from earlier work
[3] = molecular target: T2, NSD2 (Homo sapiens, UniProt O96028); experiment: Compound screening: NSD2 degradation by immunoblotting in VCaP cells; settings: 24 h; for Dmax at 2 µM: VCaP
T2 sequence (O96028 1-1365): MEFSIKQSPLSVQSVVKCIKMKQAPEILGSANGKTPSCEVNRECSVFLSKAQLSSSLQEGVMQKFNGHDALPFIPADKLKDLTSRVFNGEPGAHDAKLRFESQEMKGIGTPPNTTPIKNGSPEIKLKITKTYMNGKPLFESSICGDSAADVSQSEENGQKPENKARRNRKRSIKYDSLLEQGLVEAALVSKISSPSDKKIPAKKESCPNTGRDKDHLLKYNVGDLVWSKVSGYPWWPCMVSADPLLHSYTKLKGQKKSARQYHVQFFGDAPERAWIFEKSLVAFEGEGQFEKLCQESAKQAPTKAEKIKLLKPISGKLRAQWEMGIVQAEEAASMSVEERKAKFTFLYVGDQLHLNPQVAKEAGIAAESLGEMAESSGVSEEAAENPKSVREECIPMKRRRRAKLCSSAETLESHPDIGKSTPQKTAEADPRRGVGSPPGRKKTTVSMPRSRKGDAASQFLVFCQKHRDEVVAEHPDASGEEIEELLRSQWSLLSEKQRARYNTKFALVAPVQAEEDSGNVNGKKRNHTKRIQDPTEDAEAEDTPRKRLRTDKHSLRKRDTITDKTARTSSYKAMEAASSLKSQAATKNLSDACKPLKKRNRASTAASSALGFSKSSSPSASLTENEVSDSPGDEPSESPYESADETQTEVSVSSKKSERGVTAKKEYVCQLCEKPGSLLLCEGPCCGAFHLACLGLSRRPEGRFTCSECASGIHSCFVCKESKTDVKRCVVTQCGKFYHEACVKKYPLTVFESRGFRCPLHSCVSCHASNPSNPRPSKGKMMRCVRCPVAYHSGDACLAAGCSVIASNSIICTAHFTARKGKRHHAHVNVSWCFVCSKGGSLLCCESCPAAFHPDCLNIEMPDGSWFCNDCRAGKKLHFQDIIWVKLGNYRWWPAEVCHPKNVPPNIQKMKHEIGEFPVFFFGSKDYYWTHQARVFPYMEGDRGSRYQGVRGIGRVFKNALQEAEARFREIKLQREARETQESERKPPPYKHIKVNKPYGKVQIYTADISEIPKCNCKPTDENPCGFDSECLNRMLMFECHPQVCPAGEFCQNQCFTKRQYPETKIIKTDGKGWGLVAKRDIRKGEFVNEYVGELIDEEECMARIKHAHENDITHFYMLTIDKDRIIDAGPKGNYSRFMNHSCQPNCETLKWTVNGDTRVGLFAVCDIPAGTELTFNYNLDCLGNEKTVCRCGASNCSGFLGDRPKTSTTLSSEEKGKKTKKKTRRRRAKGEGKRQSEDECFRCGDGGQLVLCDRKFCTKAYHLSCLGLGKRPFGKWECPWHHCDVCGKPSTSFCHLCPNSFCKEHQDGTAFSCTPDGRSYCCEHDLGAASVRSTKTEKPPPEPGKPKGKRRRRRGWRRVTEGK
Protocol: After treatment, the cultured cells were collected and rinsed with phosphate-buffered saline (PBS) in room temperature. The cells were treated with RIPA buffers (ThermoFisher Scientific) supplemented with Halt Protease and Phosphatase Inhibitor Cocktail (ThermoFisher Scientific). After sonication and centrifugation, the total amount of protein in the cell lysates was measured by Pierce Bovine Serum Albumin Standard Pre-Diluted Set (ThermoFisher Scientific). […] After incubated with HRP-conjugated secondary antibodies, the membranes were developed with ECL Prime Western Blotting Detection Reagent (cytiva) and imaged on Odyssey Fc Imager (LiCOR Biosciences).
Western blot was then performed as previously described to detect NSD2 degradation.

[4] = molecular target: T3, NSD2 (both long and short isoforms) (Homo sapiens, UniProt O96028); experiment: NSD2 degradation by immunoblotting in ALL cell lines RPMI-8402 and SEM (NSD2 E1099K); format: cell-based; settings: RPMI-8402 and SEM cells; 0.5 and 2 μM for 24 h or 2 μM for 12 and 24 h
T3 sequence (O96028 211-350 limits assumed): T1 sequence (O96028 211-350 limits assumed)
Protocol: As previous studies have shown that ALL cell lines with NSD2 gain-of-function mutation are more dependent on NSD2 regarding H3K36me2 level and cell proliferation,[7],[8] we further characterized LLC0424 in ALL cell lines with NSD2 E1099K gain-of-function mutation (RPMI-8402 and SEM). We first treated these cells with LLC0424 with different concentrations for 24 h. […] In addition, we compared the degradation efficiency of LLC0424 with the two previously published NSD2 degraders 6 and 7 at different concentrations and time points.
After treatment, the cultured cells were collected and rinsed with phosphate-buffered saline (PBS) in room temperature. The cells were treated with RIPA buffers (ThermoFisher Scientific) supplemented with Halt Protease and Phosphatase Inhibitor Cocktail (ThermoFisher Scientific). After sonication and centrifugation, the total amount of protein in the cell lysates was measured by Pierce Bovine Serum Albumin Standard Pre-Diluted Set (ThermoFisher Scientific). After mixed with LDS-sample buffer (Invitrogen) supplemented with Sample Reducing Agent (Invitrogen) and heated in 70 °C for 10 min, equal amount of protein was loaded into NuPAGE 4–12%, Bis-Tris Protein Gel (ThermoFisher Scientific) or NuPAGE 3–8%, Tris-Acetate Protein Gel (ThermoFisher Scientific), and blotted with primary antibodies. After incubated with HRP-conjugated secondary antibodies, the membranes were developed with ECL Prime Western Blotting Detection Reagent (cytiva) and imaged on Odyssey Fc Imager (LiCOR Biosciences).

[5] = test system: SEM cells; experiment: Cell viability assay (CellTiter-Glo, 7 days), SEM; format: cell-based, human
Protocol: (§1) Cells were plated in 50 μL of the corresponding media in 96-well plates. A 2-fold dilution series of 2* concentrated LLC0424 was prepared in a medium with the highest concentration being 60 μM. Then 50 μL of the 2× compound-containing mixture was added to each well with 6 replicates for each concentration, reaching 1× concentration, with the highest concentration being 30 μM. The plate was incubated for 7 days. At the end point, the CellTiter-Glo assay (Promega) was then performed according to the manufacturer’s instruction to determine cell proliferation. The luminescence signal intensity of each well was acquired on an Infinite M1000Pro microplate reader and the data was analyzed using GraphPad Prism software (GraphPad Software).

[6] = test system: RPMI-8402 cells; experiment: Colony formation in soft agar; format: cell-based, human; settings: 2 μM, 30 days, INT staining
Protocol: Colony formation in soft agar was conducted in 12-well plates, with the bottom layer containing 750 μL of 0.8% agarose in 10% FBS/cell media and the top layer containing 0.4% agarose (SEM cells or RPMI-8402 cells). LLC0424 was added every 3 days to the liquid layer on top agarose to reach a final concentration of 2 μM. At the 30 days of treatment, the cells were stained with iodonitrotetrazolium chloride (INT) by adding 500 μL 1× INT PBS solution into each well. After the staining, images were taken using brightfield microscope and plate scan was conducted using Epson Perfection V700 Photo. Colony number counting was performed using ImageJ.

[7] = test system: SEM cells; experiment: RNA-seq global transcriptome analysis; format: cell-based, human; settings: 14 days of treatment, versus DMSO
Protocol: NSD2 is the primary methyltransferase that transfers dimethyl to H3K36 in ALL with NSD2 gain-of-function mutation. Therefore, the effects of LLC0424 on H3K36me2 was evaluated in SEM and RPMI-8402 cells. […] Meanwhile, LLC0424 treatment also led to downregulation of H3K36Me2 in RPMI-8402 cells within 24 h (Figure 6B). […] We also conducted a colony formation assay to evaluate the effect of LLC0424 on the stem cell-like property of the leukemia cells. […] As LLC0424 leads to strong degradation of both NSD2-L and NSD2-S, the phenotypic changes upon LLC0424 treatment result from complete inactivation of NSD2 activity, including adaptor-like function of NSD2-S and SET-domain dependent enzymatic function of NSD2-L. The specific contributions of NSD2 isoforms warrant future investigation. To characterize the genes affected by LLC0424 treatment, we performed global transcriptome analysis of SEM cells treated by DMSO, LLC0424, or LLC0424N. […]
Total RNA was isolated from cells using the miRNeasy Mini Kit (Qiagen). […] Paired-end libraries were sequenced with the Illumina HiSeq 2500 (2 × 100 nucleotide read length) with sequence coverage to 15–20 M paired reads. […] Then we performed the analysis in R. First, EdgeR (edgeR_3.39.6) was used to perform read counts normalization and filtering (counts >10) and then Limma-Voom (limma_3.53.10) was used to analyze differential expression.

[8] = test system: RPMI-8402 cells; experiment: Cell viability assay (CellTiter-Glo, 7 days), RPMI-8402; format: cell-based, human
Protocol: as §1

SMILES: O=C1CCC(N2C(=O)c3ccccc3C2=O)C(=O)N1 (stereo not shown) [thalidomide]
effect of pretreatment on LLC0424-mediated NSD2 degradation ([1]; RPMI-8402 and SEM cells, pretreated 2 h, then 2 μM LLC0424 for 12 h): reversed the LLC0424-mediated NSD2 degradation

% Degradation ([3]; 2 μM, VCaP cells, immunoblotting): 30%
NSD2 degradation, comparison of degraders [4]: much less active
SMILES: NCCCCCCNC(=O)c1ccc(NC(=O)c2ccc(CN(C(=O)c3ccc4c(c3)OCC(=O)N4)C3CC3)cc2)cc1 [compound 7, reference compound]
DC50 [2]: 350 nM
Dmax [2]: 79%

NSD2 degradation, comparison of degraders [4]: much less active
SMILES: CN1C(=O)CCC(N2C(=O)c3ccc(N4CCC(NC(=O)c5ccc(NC(=O)c6ccc(CN(C(=O)c7ccc8c(c7)OCC(=O)N8)C7CC7)cc6)cc5)CC4)cc3C2=O)C1=O (stereo not shown) [LLC0424N]
IC50 (growth, cell viability) [5]: much less active
formation of cell colonies [6]: not
differentially expressed genes (transcriptome) [7]: little transcription level changes
IC50 (growth, cell viability) [8]: much less active

Dmax at 2 µM ([3]; read-out: 2.0 μM Degradation % (VCaP)): 89%
Dmax at 2 µM ([3]; read-out: % Degradation): 89%
SMILES: CN(C(=O)c1ccc(NC(=O)c2ccc(CN(C(=O)c3ccc4c(c3)OCC(=O)N4)C3CC3)cc2)cc1)C1CCN(c2ccc3c(c2)C(=O)N(C2CCC(=O)NC2=O)C3=O)CC1 (stereo not shown) [10o, N-Cyclopropyl-N-(4-((4-((1-(2-(2,6-dioxopiperidin-3-yl)-1,3-dioxoisoindolin-5-yl)piperidin-4-yl)(methyl)carbamoyl)phenyl)carbamoyl)benzyl)-3-oxo-3,4-dihydro-2H-benzo[b][1,4]oxazine-7-carboxamide]

SMILES: NS(=O)(=O)OC[C@@H]1C[C@@H](n2ccc3c(N[C@H]4CCc5ccccc54)ncnc32)C[C@@H]1O [MLN4924]
effect of pretreatment on NSD2 protein reduction induced by LLC0424 ([1]; RPMI-8402 cells, 2 μM LLC0424): rescued the NSD2 protein reduction induced by LLC0424
